# Results as given in patent publication US20220339143A1, “TAK-925 FOR USE IN TREATING NARCOLEPSY” (Takeda Pharmaceutical Company Limited, priority 2019, published 2022).
# System: patients with narcolepsy type 1 (NT1)
# Assay: Subjective daytime sleepiness as assessed by Karolinska Sleepiness Scale (KSS), single dose (Cohorts 5, 6, 7)
# Format: in vivo, human
# Description: Daytime sleepiness as assessed by the Karolinska Sleepiness Scale (KSS).
# Daytime sleepiness as assessed by KSS at predose and hourly until 11 hours after the start of infusion is presented in Table 13 as summary, in Table 14 as ANOVA and in Table 15 as ANOVA of change from baseline.
# [1] = Cmpd A 5 mg (N = 6), 9 hr after start of infusion
# [2] = Cmpd A 5 mg (N = 6), 10 hr after start of infusion
# [3] = Cmpd A 5 mg (N = 6), 11 hr after start of infusion
# [4] = Cmpd A 11.2 mg (N = 4), 1 hr after start of infusion
# [5] = Cmpd A 11.2 mg (N = 4), 2 hr after start of infusion
# [6] = Cmpd A 11.2 mg (N = 4), 3 hr after start of infusion
# [7] = Cmpd A 11.2 mg (N = 4), 4 hr after start of infusion
# [8] = Cmpd A 11.2 mg (N = 4), 5 hr after start of infusion
# [9] = Cmpd A 11.2 mg (N = 4), 6 hr after start of infusion
# [10] = Cmpd A 11.2 mg (N = 4), 7 hr after start of infusion
# [11] = Cmpd A 11.2 mg (N = 4), 8 hr after start of infusion
# [12] = Cmpd A 11.2 mg (N = 4), 9 hr after start of infusion
# [13] = Cmpd A 11.2 mg (N = 4), 10 hr after start of infusion
# [14] = Cmpd A 11.2 mg (N = 4), 11 hr after start of infusion
# [15] = Cmpd A 44.8 mg (N = 4), 1 hr after start of infusion
# [16] = Cmpd A 44.8 mg (N = 4), 2 hr after start of infusion
# [17] = Cmpd A 44.8 mg (N = 4), 3 hr after start of infusion
# [18] = Cmpd A 44.8 mg (N = 4), 4 hr after start of infusion
# [19] = Cmpd A 44.8 mg (N = 4), 5 hr after start of infusion
# [20] = Cmpd A 44.8 mg (N = 4), 6 hr after start of infusion
# [21] = Cmpd A 44.8 mg (N = 4), 7 hr after start of infusion
# [22] = Cmpd A 44.8 mg (N = 4), 8 hr after start of infusion
# [23] = Cmpd A 44.8 mg (N = 4), 9 hr after start of infusion
# [24] = Cmpd A 44.8 mg (N = 4), 10 hr after start of infusion
# [25] = Cmpd A 44.8 mg (N = 4), 11 hr after start of infusion
structure (smiles),measurement,setting,value
"COC(=O)N1CCC[C@H](NS(C)(=O)=O)[C@@H]1CO[C@H]1CC[C@@H](c2ccccc2)CC1 [Compound A, methyl (2R,3S)-3-((methylsulfonyl)amino)-2-(((cis-4-phenylcyclohexyl)oxy)methyl)piperidine-1-carboxylate]","KSS Observed Value at Visit, Median","Cmpd A 5 mg (N = 6), 8 hr after start of infusion",3.0
same,"KSS Change from Baseline, Mean",[1],−2.5
same,"KSS Change from Baseline, Median",[1],−2.5
same,"KSS Observed Value at Visit, Mean",[1],2.5
same,"KSS Observed Value at Visit, Median",[1],2.5
same,"KSS Change from Baseline, Mean",[2],−2.3
same,"KSS Change from Baseline, Median",[2],−2.5
same,"KSS Observed Value at Visit, Mean",[2],2.7
same,"KSS Observed Value at Visit, Median",[2],2.0
same,"KSS Change from Baseline, Mean",[3],−1.7
same,"KSS Change from Baseline, Median",[3],−1.5
same,"KSS Observed Value at Visit, Mean",[3],3.3
same,"KSS Observed Value at Visit, Median",[3],3.0
same,"KSS Change from Baseline, Mean",[4],−2.0
same,"KSS Change from Baseline, Median",[4],−1.0
same,"KSS Observed Value at Visit, Mean",[4],1.8
same,"KSS Observed Value at Visit, Median",[4],1.5
same,"KSS Change from Baseline, Mean",[5],−1.5
same,"KSS Change from Baseline, Median",[5],−1.0
same,"KSS Observed Value at Visit, Mean",[5],2.3
same,"KSS Observed Value at Visit, Median",[5],2.0
same,"KSS Change from Baseline, Mean",[6],−1.3
same,"KSS Change from Baseline, Median",[6],−1.0
same,"KSS Observed Value at Visit, Mean",[6],2.5
same,"KSS Observed Value at Visit, Median",[6],3.0
same,"KSS Change from Baseline, Mean",[7],−1.8
same,"KSS Change from Baseline, Median",[7],−1.0
same,"KSS Observed Value at Visit, Mean",[7],2.0
same,"KSS Observed Value at Visit, Median",[7],2.0
same,"KSS Change from Baseline, Mean",[8],−1.8
same,"KSS Change from Baseline, Median",[8],−1.0
same,"KSS Observed Value at Visit, Mean",[8],2.0
same,"KSS Observed Value at Visit, Median",[8],2.0
same,"KSS Change from Baseline, Mean",[9],−1.5
same,"KSS Change from Baseline, Median",[9],−0.5
same,"KSS Observed Value at Visit, Mean",[9],2.3
same,"KSS Observed Value at Visit, Median",[9],2.0
same,"KSS Change from Baseline, Mean",[10],−1.0
same,"KSS Change from Baseline, Median",[10],−0.5
same,"KSS Observed Value at Visit, Mean",[10],2.8
same,"KSS Observed Value at Visit, Median",[10],3.0
same,"KSS Change from Baseline, Mean",[11],−1.5
same,"KSS Change from Baseline, Median",[11],−1.0
same,"KSS Observed Value at Visit, Mean",[11],2.3
same,"KSS Observed Value at Visit, Median",[11],2.5
same,"KSS Change from Baseline, Mean",[12],−1.3
same,"KSS Change from Baseline, Median",[12],−0.5
same,"KSS Observed Value at Visit, Mean",[12],2.5
same,"KSS Observed Value at Visit, Median",[12],2.5
same,"KSS Change from Baseline, Mean",[13],1.3
same,"KSS Change from Baseline, Median",[13],2.5
same,"KSS Observed Value at Visit, Mean",[13],5.0
same,"KSS Observed Value at Visit, Median",[13],5.5
same,"KSS Change from Baseline, Mean",[14],0.5
same,"KSS Change from Baseline, Median",[14],1.0
same,"KSS Observed Value at Visit, Mean",[14],4.3
same,"KSS Observed Value at Visit, Median",[14],4.0
same,"KSS Change from Baseline, Mean",[15],−1.5
same,"KSS Change from Baseline, Median",[15],−1.5
same,"KSS Observed Value at Visit, Mean",[15],1.3
same,"KSS Observed Value at Visit, Median",[15],1.0
same,"KSS Change from Baseline, Mean",[16],−1.5
same,"KSS Change from Baseline, Median",[16],−2.0
same,"KSS Observed Value at Visit, Mean",[16],1.3
same,"KSS Observed Value at Visit, Median",[16],1.0
same,"KSS Change from Baseline, Mean",[17],−1.0
same,"KSS Change from Baseline, Median",[17],−1.0
same,"KSS Observed Value at Visit, Mean",[17],1.8
same,"KSS Observed Value at Visit, Median",[17],1.5
same,"KSS Change from Baseline, Mean",[18],−1.0
same,"KSS Change from Baseline, Median",[18],−1.0
same,"KSS Observed Value at Visit, Mean",[18],1.8
same,"KSS Observed Value at Visit, Median",[18],1.5
same,"KSS Change from Baseline, Mean",[19],−1.5
same,"KSS Change from Baseline, Median",[19],−1.5
same,"KSS Observed Value at Visit, Mean",[19],1.3
same,"KSS Observed Value at Visit, Median",[19],1.0
same,"KSS Change from Baseline, Mean",[20],−1.3
same,"KSS Change from Baseline, Median",[20],−1.0
same,"KSS Observed Value at Visit, Mean",[20],1.5
same,"KSS Observed Value at Visit, Median",[20],1.5
same,"KSS Change from Baseline, Mean",[21],−1.3
same,"KSS Change from Baseline, Median",[21],−1.0
same,"KSS Observed Value at Visit, Mean",[21],1.5
same,"KSS Observed Value at Visit, Median",[21],1.5
same,"KSS Change from Baseline, Mean",[22],−0.8
same,"KSS Change from Baseline, Median",[22],−1.0
same,"KSS Observed Value at Visit, Mean",[22],2.0
same,"KSS Observed Value at Visit, Median",[22],2.0
same,"KSS Change from Baseline, Mean",[23],−1.3
same,"KSS Change from Baseline, Median",[23],−1.0
same,"KSS Observed Value at Visit, Mean",[23],1.5
same,"KSS Observed Value at Visit, Median",[23],1.0
same,"KSS Change from Baseline, Mean",[24],−1.5
same,"KSS Change from Baseline, Median",[24],−1.5
same,"KSS Observed Value at Visit, Mean",[24],1.3
same,"KSS Observed Value at Visit, Median",[24],1.0
same,"KSS Change from Baseline, Mean",[25],−1.3
same,"KSS Change from Baseline, Median",[25],−1.0
same,"KSS Observed Value at Visit, Mean",[25],1.5
same,"KSS Observed Value at Visit, Median",[25],1.5
same,KSS ratings vs pooled placebo group,all time points over 9 hour infusion period,lower (greater alertness)
same,mean reduction in KSS from baseline vs placebo,"single dose, NT1",greater for Compound A vs placebo
